Test results as given in ChEMBL document CHEMBL5614367, “Hydroxamic acid hybrids: Histone deacetylase inhibitors with anticancer therapeutic potency” (Eur J Med Chem, 2023).
pIC50: −log10 of the molar value.

Key:
NCI-H2122 = assay: Cytotoxicity against human NCI-H2122 cells assessed as inhibition of cell growth measured after 72 hrs by CellTiter-Glo luminescent viability assay; type: functional, cell-based; conditions: NCI-H2122, 72 h
[1] = Cmax in tumor of female SCID mouse xenografted with human Daudi cells at 25 to 100 mg/kg, iv measured upto 24 hrs by LC-MS/MS analysis; type: ADME, organism-based, Neoplasm; conditions: dose 25-100 mg/kg
Histone deacetylase 2 = Histone deacetylase 2 (Homo sapiens, UniProt Q92769); assay: Inhibition of HDAC2 (unknown origin)
LoVo = assay: Cytotoxicity against human LoVo cells assessed as inhibition of cell growth measured after 72 hrs by CellTiter-Glo luminescent viability assay; type: functional, cell-based
SW-620 = assay: Cytotoxicity against human SW620 cells assessed as inhibition of cell growth measured after 72 hrs by CellTiter-Glo luminescent viability assay; type: functional, cell-based; conditions: SW-620, 72 h
K562 = assay: Cytotoxicity against human K562 cells assessed as inhibition of cell growth measured after 72 hrs by CellTiter-Glo luminescent viability assay; type: functional, cell-based; conditions: K562, 72 h
[2] = AUC in tumor of female SCID mouse xenografted with human Daudi cells at 25 to 100 mg/kg, iv measured upto 24 hrs by LC-MS/MS analysis; type: ADME, organism-based, Neoplasm; conditions: in vivo, dose 25-100 mg/kg
SW480 = assay: Cytotoxicity against human SW480 cells assessed as inhibition of cell growth measured after 72 hrs by CellTiter-Glo luminescent viability assay; type: functional, cell-based; conditions: SW480, 72 h
Daudi = assay: Cytotoxicity against human Daudi cells assessed as inhibition of cell growth measured after 72 hrs by CellTiter-Glo luminescent viability assay; type: functional, cell-based
HCT-116 = assay: Cytotoxicity against human HCT-116 cells assessed as inhibition of cell growth measured after 72 hrs by CellTiter-Glo luminescent viability assay; type: functional, cell-based; conditions: HCT-116, 72 h
U-937 = assay: Cytotoxicity against human U-937 cells assessed as inhibition of cell growth measured after 72 hrs by CellTiter-Glo luminescent viability assay; type: functional, cell-based; conditions: U-937, 72 h
NCI-H358 = assay: Cytotoxicity against human NCI-H358 cells assessed as inhibition of cell growth measured after 72 hrs by CellTiter-Glo luminescent viability assay; type: functional, cell-based; conditions: NCI-H358, 72 h
[3] = Inhibition of PI3K (unknown origin); design: species or system Homo sapiens
TMD8 = assay: Cytotoxicity against human TMD8 cells assessed as inhibition of cell growth measured after 72 hrs by CellTiter-Glo luminescent viability assay; type: functional, cell-based; conditions: TMD8, 72 h
COLO 205 = assay: Cytotoxicity against human COLO 205 cells assessed as inhibition of cell growth measured after 72 hrs by CellTiter-Glo luminescent viability assay; type: functional, cell-based; conditions: COLO 205, 72 h
NCI-H1975 = assay: Cytotoxicity against human NCI-H1975 cells assessed as inhibition of cell growth measured after 72 hrs by CellTiter-Glo luminescent viability assay; type: functional, cell-based; conditions: NCI-H1975, 72 h
NCI-H460 = assay: Cytotoxicity against human NCI-H460 cells assessed as inhibition of cell growth measured after 72 hrs by CellTiter-Glo luminescent viability assay; type: functional, cell-based; conditions: NCI-H460, 72 h
[4] = Half life in tumor of female SCID mouse xenografted with human Daudi cells at 25 to 100 mg/kg, iv measured upto 24 hrs by LC-MS/MS analysis; type: ADME, organism-based, Neoplasm; conditions: dose 25-100 mg/kg
Histone deacetylase 3 = Histone deacetylase 3 (Homo sapiens, UniProt O15379); assay: Inhibition of HDAC3 (unknown origin)
[5] = target: Polyamine deacetylase HDAC10 (Homo sapiens, UniProt Q969S8); assay: Inhibition of HDAC10 (unknown origin)
Ramos = assay: Cytotoxicity against human Ramos cells assessed as inhibition of cell growth measured after 72 hrs by CellTiter-Glo luminescent viability assay; type: functional, cell-based
Histone deacetylase 11 = Histone deacetylase 11 (Homo sapiens, UniProt Q96DB2); assay: Inhibition of HDAC11 (unknown origin)
MC-38 = assay: Cytotoxicity against mouse MC38 cells assessed as inhibition of cell growth measured after 72 hrs by CellTiter-Glo luminescent viability assay; type: functional, cell-based; conditions: MC-38, 72 h
Calu-6 = assay: Cytotoxicity against human Calu-6 cells assessed as inhibition of cell growth measured after 72 hrs by CellTiter-Glo luminescent viability assay; type: functional, cell-based; conditions: Calu-6, 72 h
Histone deacetylase 1 = Histone deacetylase 1 (Homo sapiens, UniProt Q13547); assay: Inhibition of HDAC1 (unknown origin)
THP-1 = assay: Cytotoxicity against human THP-1 cells assessed as inhibition of cell growth measured after 72 hrs by CellTiter-Glo luminescent viability assay; type: functional, cell-based; conditions: THP-1, 72 h
PC-9 = assay: Cytotoxicity against human PC-9 cells assessed as inhibition of cell growth measured after 72 hrs by CellTiter-Glo luminescent viability assay; type: functional, cell-based; conditions: PC-9, 72 h

Chain of Polyamine deacetylase HDAC10 (Q969S8 whole entry): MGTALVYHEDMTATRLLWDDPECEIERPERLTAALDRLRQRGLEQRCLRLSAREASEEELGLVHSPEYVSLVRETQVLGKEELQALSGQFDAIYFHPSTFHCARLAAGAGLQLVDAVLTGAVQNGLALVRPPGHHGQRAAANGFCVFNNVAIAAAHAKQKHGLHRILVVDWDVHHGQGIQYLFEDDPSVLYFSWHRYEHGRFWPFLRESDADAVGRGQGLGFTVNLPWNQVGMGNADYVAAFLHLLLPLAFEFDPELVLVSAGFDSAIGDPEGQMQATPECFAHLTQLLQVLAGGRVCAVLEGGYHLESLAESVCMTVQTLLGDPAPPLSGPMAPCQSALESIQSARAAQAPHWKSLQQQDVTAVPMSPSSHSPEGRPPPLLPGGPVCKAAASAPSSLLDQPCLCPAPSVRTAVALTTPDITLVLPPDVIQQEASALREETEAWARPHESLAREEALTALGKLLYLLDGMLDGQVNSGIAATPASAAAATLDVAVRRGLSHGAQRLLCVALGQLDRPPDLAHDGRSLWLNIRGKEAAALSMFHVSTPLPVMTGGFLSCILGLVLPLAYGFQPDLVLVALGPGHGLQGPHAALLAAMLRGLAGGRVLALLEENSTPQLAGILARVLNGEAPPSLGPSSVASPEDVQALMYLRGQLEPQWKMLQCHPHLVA
Chain of Histone deacetylase 2 (Q92769 whole entry): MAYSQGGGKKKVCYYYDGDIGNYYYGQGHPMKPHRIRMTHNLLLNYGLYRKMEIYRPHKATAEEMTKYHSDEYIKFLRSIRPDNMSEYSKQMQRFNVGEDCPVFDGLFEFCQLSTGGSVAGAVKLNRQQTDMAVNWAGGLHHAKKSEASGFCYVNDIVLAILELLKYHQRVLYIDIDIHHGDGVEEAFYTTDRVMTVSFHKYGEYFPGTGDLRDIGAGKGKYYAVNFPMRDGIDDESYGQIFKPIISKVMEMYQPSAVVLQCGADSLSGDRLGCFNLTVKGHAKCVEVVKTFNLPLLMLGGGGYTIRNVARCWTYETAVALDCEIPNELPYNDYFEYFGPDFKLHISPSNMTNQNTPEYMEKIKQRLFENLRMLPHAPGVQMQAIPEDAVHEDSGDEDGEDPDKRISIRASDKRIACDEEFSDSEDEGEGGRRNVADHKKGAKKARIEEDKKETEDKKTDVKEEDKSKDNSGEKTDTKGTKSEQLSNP
Chain of Histone deacetylase 1 (Q13547 whole entry): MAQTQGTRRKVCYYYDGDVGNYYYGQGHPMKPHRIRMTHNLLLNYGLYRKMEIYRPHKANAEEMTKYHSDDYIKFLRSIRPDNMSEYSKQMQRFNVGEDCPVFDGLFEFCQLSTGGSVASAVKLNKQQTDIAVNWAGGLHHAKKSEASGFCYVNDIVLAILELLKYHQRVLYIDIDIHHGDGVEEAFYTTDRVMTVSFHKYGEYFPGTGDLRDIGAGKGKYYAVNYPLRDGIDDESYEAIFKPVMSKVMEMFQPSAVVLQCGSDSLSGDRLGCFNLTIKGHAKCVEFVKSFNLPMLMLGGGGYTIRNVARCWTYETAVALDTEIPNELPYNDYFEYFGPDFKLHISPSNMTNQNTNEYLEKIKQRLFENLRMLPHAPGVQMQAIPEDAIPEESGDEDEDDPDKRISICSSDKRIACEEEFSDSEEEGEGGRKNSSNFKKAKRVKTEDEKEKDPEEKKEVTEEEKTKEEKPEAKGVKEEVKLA
Chain of Histone deacetylase 3 (O15379 whole entry): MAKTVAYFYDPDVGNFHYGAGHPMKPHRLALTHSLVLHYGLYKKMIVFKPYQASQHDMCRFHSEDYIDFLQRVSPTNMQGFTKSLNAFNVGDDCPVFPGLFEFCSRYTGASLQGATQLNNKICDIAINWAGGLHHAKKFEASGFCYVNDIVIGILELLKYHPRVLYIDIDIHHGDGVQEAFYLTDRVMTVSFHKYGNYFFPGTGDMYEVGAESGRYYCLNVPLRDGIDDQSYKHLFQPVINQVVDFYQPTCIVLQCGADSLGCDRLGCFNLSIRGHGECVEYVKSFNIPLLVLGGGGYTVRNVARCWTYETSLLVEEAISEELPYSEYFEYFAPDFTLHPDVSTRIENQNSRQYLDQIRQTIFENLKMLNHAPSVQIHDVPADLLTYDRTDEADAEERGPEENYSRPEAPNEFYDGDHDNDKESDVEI
Chain of Histone deacetylase 11 (Q96DB2 whole entry): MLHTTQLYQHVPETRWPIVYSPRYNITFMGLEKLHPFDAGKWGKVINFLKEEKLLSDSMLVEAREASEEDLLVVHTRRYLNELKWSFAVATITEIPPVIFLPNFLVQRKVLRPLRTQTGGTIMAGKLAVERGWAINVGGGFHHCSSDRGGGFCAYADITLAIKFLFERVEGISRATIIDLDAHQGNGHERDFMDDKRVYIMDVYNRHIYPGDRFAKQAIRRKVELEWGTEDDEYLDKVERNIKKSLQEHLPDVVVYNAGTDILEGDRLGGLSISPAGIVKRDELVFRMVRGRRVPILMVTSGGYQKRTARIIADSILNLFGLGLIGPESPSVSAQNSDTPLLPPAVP

CNc1ccc(-c2nc(N3CCOCC3)c3sc(CN(C)c4ncc(C(=O)NO)cn4)cc3n2)cn1
17157.9 ng·h/g: AUC [2]
8.03: pIC50 [3]
9.52: pIC50 (NCI-H2122) | pIC50 (LoVo) | pIC50 (SW-620) | pIC50 (K562) | pIC50 (SW480) | pIC50 (Daudi) | pIC50 (HCT-116) | pIC50 (U-937) | pIC50 (NCI-H358) | pIC50 (TMD8) | pIC50 (COLO 205) | pIC50 (NCI-H1975) | pIC50 (NCI-H460) | pIC50 (Ramos) | pIC50 (MC-38) | pIC50 (Calu-6) | pIC50 (THP-1) | pIC50 (PC-9)
14500 ng/g: Cmax [1]
9.05: pIC50 (Histone deacetylase 2) | pIC50 (Histone deacetylase 3) | pIC50 [5] | pIC50 (Histone deacetylase 11) | pIC50 (Histone deacetylase 1)
7.9 h: half-life [4]
